The structures appear in SMILES notation.

The first test deals with COV362. As to the kind of experiment: drug sensitivity score (DSS) from 5-point dose-response viability curve (DSS (area-under-curve based score)); higher = more sensitive (stronger growth inhibition or killing); extreme values may be limits of the assay. To be noted: exposure time: 72 h; concentration range: 5 concentrations over 10,000-fold range. Summed up:
(§1)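 For the drug sensitivity score, obtained per cell line and drug in Breeze software, larger values mean greater sensitivity. No response corresponds to a score of zero. Ovarian cancer and normal ovarian cells were seeded at 1,500 per well into 384-well plates already holding acoustically dispensed drugs (Echo 550, DMSO or water, five concentrations over a 10,000-fold range) and incubated 3 days at 37°C, 5% CO2. CellTiter-Glo luminescence on a PHERAstar FS gave the viability readout.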
The compound `COc1cc(N2CCN(C)CC2)ccc1Nc1nccc(-c2cn(C)c3cnccc23)n1` [AZ191] had a drug sensitivity score of 2.2.
Still for that read-out and setting: for `FC(F)(F)c1ccc(CNc2ccc(Cc3c[nH]c4ncc(Cl)cc34)cn2)cn1` [Pexidartinib] the value was 0; for `CNC(=O)c1cc(Oc2ccc(NC(=O)Nc3ccc(Cl)c(C(F)(F)F)c3)c(F)c2)ccn1` [Regorafenib], 0.6; for `C[C@@H]1CN(Cc2ccc(F)cc2)[C@@H](C)CN1C(=O)c1cc2c(C(=O)C(=O)N(C)C)cn(C)c2cc1Cl` [Talmapimod], 0.
With `COc1cc([C@@H]2c3cc4c(cc3[C@@H](O[C@@H]3O[C@@H]5CO[C@@H](c6cccs6)O[C@H]5[C@H](O)[C@H]3O)[C@H]3COC(=O)[C@H]23)OCO4)cc(OC)c1O` [Teniposide], the drug sensitivity score came out at 0.
The compound `COc1cc2ncnc(Nc3ccc(F)c(Cl)c3)c2cc1NC(=O)/C=C/CN1CCCCC1` [Dacomitinib] registered a drug sensitivity score of 0.2.
As to `CCOCc1nc2c(N)nc3ccccc3c2n1CC(C)(C)O` [Resiquimod], the drug sensitivity score was 0.
As to `Cc1ccc(C(=O)N(CCCN)[C@@H](c2oc3cc(Cl)ccc3c(=O)c2Cc2ccccc2)C(C)C)cc1`, the drug sensitivity score is 0.4.
Regarding `CN1CCC(CNc2ccc3ncc(-c4cccc(OC(F)(F)F)c4)n3n2)CC1` [SGI-1776], the drug sensitivity score was determined as 4.3.
`Cc1ccc(-c2cc(C(F)(F)F)nn2-c2ccc(S(N)(=O)=O)cc2)cc1` [Celecoxib] showed a drug sensitivity score of 0.
`Oc1nc(-c2ccc(C(F)(F)F)cc2)nc2c1CSCC2` [XAV-939] gave a drug sensitivity score of 0.
As to `COc1cc(Nc2ncc(F)c(Nc3ccc4c(n3)NC(=O)C(C)(C)O4)n2)cc(OC)c1OC` [Tamatinib], the drug sensitivity score was determined as 0.
In turn, `Nc1nc(Cl)nc2c1ncn2[C@H]1C[C@H](O)[C@@H](CO)O1` [Cladribine] gave a drug sensitivity score of 0.1.
For the compound `O=S(=O)(c1cccc2c(O)nccc12)N1CCCNCC1` [Hydroxyfasudil], the drug sensitivity score worked out at 0.
For the compound `Nc1nc(Cl)nc2c1ncn2[C@@H]1O[C@H](CO)[C@@H](O)[C@@H]1F` [Clofarabine], the drug sensitivity score was 7.3.

For the next test, the system named is CAOV3. The description is as above. The settings on record: exposure time: 72 h; concentration range: 5 concentrations over 10,000-fold range. Summed up: as §1
The compound `COc1cc(N2CCN(C)CC2)ccc1Nc1nccc(-c2cn(C)c3cnccc23)n1` [AZ191] had a drug sensitivity score of 0.
For `FC(F)(F)c1ccc(CNc2ccc(Cc3c[nH]c4ncc(Cl)cc34)cn2)cn1` [Pexidartinib], the drug sensitivity score stood at 0.8.
Still for that read-out and setting: for `CNC(=O)c1cc(Oc2ccc(NC(=O)Nc3ccc(Cl)c(C(F)(F)F)c3)c(F)c2)ccn1` [Regorafenib] the value was 2; for `C[C@@H]1CN(Cc2ccc(F)cc2)[C@@H](C)CN1C(=O)c1cc2c(C(=O)C(=O)N(C)C)cn(C)c2cc1Cl` [Talmapimod], 0; for `COc1cc([C@@H]2c3cc4c(cc3[C@@H](O[C@@H]3O[C@@H]5CO[C@@H](c6cccs6)O[C@H]5[C@H](O)[C@H]3O)[C@H]3COC(=O)[C@H]23)OCO4)cc(OC)c1O` [Teniposide], 0.
For the compound `COc1cc2ncnc(Nc3ccc(F)c(Cl)c3)c2cc1NC(=O)/C=C/CN1CCCCC1` [Dacomitinib], the drug sensitivity score was determined as 8.
Compound `CCOCc1nc2c(N)nc3ccccc3c2n1CC(C)(C)O` [Resiquimod] had a drug sensitivity score of 0.
Compound `Cc1ccc(C(=O)N(CCCN)[C@@H](c2oc3cc(Cl)ccc3c(=O)c2Cc2ccccc2)C(C)C)cc1` came in with a drug sensitivity score of 5.8.
As for `CN1CCC(CNc2ccc3ncc(-c4cccc(OC(F)(F)F)c4)n3n2)CC1` [SGI-1776], the drug sensitivity score turned out to be 5.1.
With `Cc1ccc(-c2cc(C(F)(F)F)nn2-c2ccc(S(N)(=O)=O)cc2)cc1` [Celecoxib], the drug sensitivity score was found to be 0.
As for `Oc1nc(-c2ccc(C(F)(F)F)cc2)nc2c1CSCC2` [XAV-939], the drug sensitivity score is 0.
`COc1cc(Nc2ncc(F)c(Nc3ccc4c(n3)NC(=O)C(C)(C)O4)n2)cc(OC)c1OC` [Tamatinib]: the drug sensitivity score worked out at 0.
For `Nc1nc(Cl)nc2c1ncn2[C@H]1C[C@H](O)[C@@H](CO)O1` [Cladribine], the drug sensitivity score is 4.2.
Same read-out and setting: for `O=S(=O)(c1cccc2c(O)nccc12)N1CCCNCC1` [Hydroxyfasudil] the value was 0; for `Nc1nc(Cl)nc2c1ncn2[C@@H]1O[C@H](CO)[C@@H](O)[C@@H]1F` [Clofarabine], 17.1.

The subject of the next test is JHOS2. Described as above. The settings on record: exposure time: 72 h; concentration range: 5 concentrations over 10,000-fold range. Summed up:
as §1
For the compound `COc1cc(N2CCN(C)CC2)ccc1Nc1nccc(-c2cn(C)c3cnccc23)n1` [AZ191], the drug sensitivity score was 4.4.
Take `FC(F)(F)c1ccc(CNc2ccc(Cc3c[nH]c4ncc(Cl)cc34)cn2)cn1` [Pexidartinib]: the drug sensitivity score came to 5.
As for `CNC(=O)c1cc(Oc2ccc(NC(=O)Nc3ccc(Cl)c(C(F)(F)F)c3)c(F)c2)ccn1` [Regorafenib], the drug sensitivity score is 1.3.
Still for that read-out and setting: as for `C[C@@H]1CN(Cc2ccc(F)cc2)[C@@H](C)CN1C(=O)c1cc2c(C(=O)C(=O)N(C)C)cn(C)c2cc1Cl` [Talmapimod], the figure is 0.
`COc1cc([C@@H]2c3cc4c(cc3[C@@H](O[C@@H]3O[C@@H]5CO[C@@H](c6cccs6)O[C@H]5[C@H](O)[C@H]3O)[C@H]3COC(=O)[C@H]23)OCO4)cc(OC)c1O` [Teniposide] came in with a drug sensitivity score of 0.
Regarding `COc1cc2ncnc(Nc3ccc(F)c(Cl)c3)c2cc1NC(=O)/C=C/CN1CCCCC1` [Dacomitinib], the drug sensitivity score turned out to be 0.8.
Same read-out and setting: as for `CCOCc1nc2c(N)nc3ccccc3c2n1CC(C)(C)O` [Resiquimod], the figure is 0.6.
`Cc1ccc(C(=O)N(CCCN)[C@@H](c2oc3cc(Cl)ccc3c(=O)c2Cc2ccccc2)C(C)C)cc1` gave a drug sensitivity score of 4.8.
The compound `CN1CCC(CNc2ccc3ncc(-c4cccc(OC(F)(F)F)c4)n3n2)CC1` [SGI-1776] came in with a drug sensitivity score of 5.2.
`Cc1ccc(-c2cc(C(F)(F)F)nn2-c2ccc(S(N)(=O)=O)cc2)cc1` [Celecoxib]: the drug sensitivity score stood at 0.
On to `Oc1nc(-c2ccc(C(F)(F)F)cc2)nc2c1CSCC2` [XAV-939], for which the drug sensitivity score is 0.1.
Compound `COc1cc(Nc2ncc(F)c(Nc3ccc4c(n3)NC(=O)C(C)(C)O4)n2)cc(OC)c1OC` [Tamatinib] showed a drug sensitivity score of 0.
Regarding `Nc1nc(Cl)nc2c1ncn2[C@H]1C[C@H](O)[C@@H](CO)O1` [Cladribine], the drug sensitivity score amounted to 3.1.
On the same count and under the same terms, as for `O=S(=O)(c1cccc2c(O)nccc12)N1CCCNCC1` [Hydroxyfasudil], the figure is 0.4.
`Nc1nc(Cl)nc2c1ncn2[C@@H]1O[C@H](CO)[C@@H](O)[C@@H]1F` [Clofarabine] returned a drug sensitivity score of 13.5.

The values are drawn from the supplement of paper PMC11616607.
